In patent US20250002475A1 (EPICS THERAPEUTICS, priority 2023, published 2025):

Tests used:
Caov-3 cells = assay: Caov-3 cellular viability assay (ATP-Lite, 72 h); assay type: cell-based; details: Homo sapiens, ATP-Lite luminescence, % viability relative to DMSO
In short: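 IC50 values come from concentration-response fits of luminescent ATP content (ATP-Lite One Step), normalised as % viability versus DMSO. Compound exposure was 72 h at 37 °C in RPMI-1640/10% FBS with 0.1% final DMSO. Wells held 10000 cells each.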

Kasumi-1 cells = assay: Kasumi-1 cellular viability assay (ATP-Lite, 72 h); assay type: cell-based; details: Homo sapiens, ATP-Lite luminescence, % viability relative to DMSO
In short: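 Viability was read by ATP-Lite One Step luminescence after 72 h compound treatment at 37 °C/5% CO2, normalised to DMSO control, with IC50 fitted from concentration-response. Cells were Kasumi-1 (AML FAB M2) at 15000 per well in RPMI-1640/10% FBS, 0.1% DMSO final.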

[1] = biological target: T1, recombinant METTL3/METTL14 complex (Homo sapiens, UniProt Q86U44); assay: METTL3/14 Scintillation Proximity Assay (SPA), RNA methyltransferase activity; assay type: biochemical; details: 5.31 nM METTL3/14 complex, 250 nM RNA substrate, 1 μM 3H-SAM, 90 min; for compounds marked * best of the two separated forms
T1 construct: purchased Active Motif 311970; host or cells: Sf9 cells
T1 sequence (Q86U44 whole entry): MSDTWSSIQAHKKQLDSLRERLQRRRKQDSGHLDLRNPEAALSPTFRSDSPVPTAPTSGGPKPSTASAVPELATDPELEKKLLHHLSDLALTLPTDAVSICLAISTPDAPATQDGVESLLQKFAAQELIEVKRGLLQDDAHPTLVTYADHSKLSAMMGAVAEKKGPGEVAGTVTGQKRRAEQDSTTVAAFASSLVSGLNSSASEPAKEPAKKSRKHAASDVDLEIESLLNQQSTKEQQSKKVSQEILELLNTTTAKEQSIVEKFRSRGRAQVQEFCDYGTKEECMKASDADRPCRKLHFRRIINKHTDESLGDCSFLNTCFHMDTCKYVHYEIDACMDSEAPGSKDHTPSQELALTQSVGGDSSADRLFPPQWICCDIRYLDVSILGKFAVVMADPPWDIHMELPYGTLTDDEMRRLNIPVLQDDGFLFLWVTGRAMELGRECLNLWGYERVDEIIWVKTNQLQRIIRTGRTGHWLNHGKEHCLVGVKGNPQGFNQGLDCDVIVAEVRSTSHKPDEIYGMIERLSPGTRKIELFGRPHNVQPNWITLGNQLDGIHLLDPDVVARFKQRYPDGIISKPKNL
T1 sequence (Q9HCE5 whole entry partner): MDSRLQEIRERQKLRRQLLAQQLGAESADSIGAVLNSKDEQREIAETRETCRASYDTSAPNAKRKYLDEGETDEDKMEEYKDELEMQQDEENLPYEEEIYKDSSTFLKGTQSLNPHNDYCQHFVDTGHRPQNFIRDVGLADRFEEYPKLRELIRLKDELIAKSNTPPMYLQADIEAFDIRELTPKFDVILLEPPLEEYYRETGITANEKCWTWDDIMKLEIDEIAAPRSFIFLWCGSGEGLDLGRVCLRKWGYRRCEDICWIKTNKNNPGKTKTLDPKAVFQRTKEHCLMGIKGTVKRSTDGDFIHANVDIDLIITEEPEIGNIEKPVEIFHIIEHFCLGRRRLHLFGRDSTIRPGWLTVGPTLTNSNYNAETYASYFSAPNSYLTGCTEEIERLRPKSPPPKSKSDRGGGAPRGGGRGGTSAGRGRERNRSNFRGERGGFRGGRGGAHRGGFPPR

| Compound | IC50 [1] [nM] | IC50 (Caov-3 cells) [nM] | IC50 (Kasumi-1 cells) [nM] |
| --- | --- | --- | --- |
| FC1(F)CC(CN[C@@H]2CCCN(c3ccc(C4(n5cc(-c6cncc(C7CC7)c6)nn5)COC4)nc3)C2)C1 [Compound 341, (R)-1-(6-(3-(4-(5-cyclopropylpyridin-3-yl)-1H-1,2,3-triazol-1-yl)oxetan-3-yl)pyridin-3-yl)-N-((3,3-difluorocyclobutyl)methyl)piperidin-3-amine] | ≤ 50 | ≤ 500 | ≤ 500 |
| c1nnc(-c2cn(C3(c4ccc(N5CCC[C@@H](NCC6CC6)C5)cn4)COC3)nn2)cc1C1CC1 [Compound 343, (R)-N-(cyclopropylmethyl)-1-(6-(3-(4-(5-cyclopropylpyridazin-3-yl)-1H-1,2,3-triazol-1-yl)oxetan-3-yl)pyridin-3-yl)piperdin-3-amine] | ≤ 50 | ≤ 500 | 500 to 5000 |
| CC#Cc1cncc(-c2cn(C3(c4ccc(N5CCC[C@@H](NCC6CC6)C5)cn4)COC3)nn2)c1 [Compound 345, (R)-N-(cyclopropylmethyl)-1-(6-(3-(4-(5-(prop-1-vn-1-yl)pyridin-3-yl)-1H-1,2,3-triazol-1-yl)oxetan-3-yl)pyridin-3-yl)piperidin-3-amine] | ≤ 50 | ≤ 500 | ≤ 500 |
| CN1CC(c2ccc(N3CCC[C@@H](NCC4CC4)C3)cn2)(n2cc(-c3cncc(C4CC4)c3)nn2)C1 [Compound 350, (R)-N-(cyclopropylmethyl)-1-(6-(3-(4-(5-cyclopropylpyridin-3-yl)-1H-1,2,3-triazol-1-yl)-1-methylazetidin-3-yl)pyridin-3-yl)piperidin-3-amine] | ≤ 50 | 500 to 5000 | 500 to 5000 |
| c1ncc(C2CC2)cc1-c1nnc(C2(c3ccc(N4CCC[C@@H](NCC5CC5)C4)cn3)COC2)s1 [Compound 352, (R)-N-(cyclopropylmethyl)-1-(6-(3-(5-(5-cyclopropylpyridin-3-yl)-1,3,4-thiadiazol-2-yl)oxetan-3-yl)pyridin-3-yl)piperidin-3-amine] | ≤ 50 | ≤ 500 | ≤ 500 |
| CC(c1ccc(N2CCC[C@@H](NCC3CC3)C2)cn1)c1nnc(-c2cncc(C3CC3)c2)s1 (stereo partly drawn) [Compound 359, (3R)—N-(cyclopropylmethyl)-1-(6-(1-(5-(5-cyclopropylpyridin-3-yl)-1,3,4-thiadiazol-2-yl)ethyl)pyridin-3-yl)piperidin-3-amine] | ≤ 50 | ≤ 500 | ≤ 500 |
| c1cc(Cc2nnc(-c3cncc(N4CCCC4)n3)s2)ncc1N1CCC[C@@H](NCC2CC2)C1 [Compound 361, (R)-N-(cyclopropylmethyl)-1-(6-((5-(6-(pyrrolidin-1-yl)pyrazin-2-yl)-1,3,4-thiadiazol-2-yl)methyl)pyridin-3-yl)piperidin-3-amine] | ≤ 50 | ≤ 500 | ≤ 500 |
| c1ncc(C2CC2)cc1-c1nnc(Cc2ccc(N3CCC[C@@H](NCC4CC4)C3)cn2)s1 [Compound 362, (R)-N-(cyclopropylmethyl)-1-(6-((5-(5-cyclopropylpyridin-3-yl)-1,3,4-thiadiazol-2-yl)methyl)pyridin-3-yl)piperidin-3-amine] | ≤ 50 | ≤ 500 | ≤ 500 |
| CC(C)(c1ccc(N2CCC[C@@H](NCC3CC3)C2)cn1)c1nnc(-c2cncc(N3CCCC3)n2)s1 [Compound 364, (R)-N-(cyclopropylmethyl)-1-(6-(2-(5-(6-(pyrrolidin-1-yl)pyrazin-2-yl)-1,3,4-thiadiazol-2-yl)propan-2-yl)pyridin-3-yl)piperidin-3-amine] | ≤ 50 | ≤ 500 | ≤ 500 |
| c1cc(C2(c3nnc(-c4cncc(N5CCCC5)n4)s3)COC2)ncc1N1CCC[C@@H](NCC2CC2)C1 [Compound 369, (R)-N-(cyclopropylmethyl)-1-(6-(3-(5-(6-(pyrrolidin-1-yl)pyrazin-2-yl)-1,3,4-thiadiazol-2-yl)oxetan-3-yl)pyridin-3-yl)piperidin-3-amine] | ≤ 50 | ≤ 500 | ≤ 500 |

More lines, main results first:

| IC50 [1] [nM] | Compound | IC50 (Caov-3 cells) [nM] | IC50 (Kasumi-1 cells) [nM] |
| --- | --- | --- | --- |
| 50 to 500 | c1ncc(C2CC2)cc1-c1nnc(C2(c3ccc(N4CCC[C@@H](NCC5CC5)C4)cn3)COC2)o1 [Compound 344, (R)-N-(cyclopropylmethyl)-1-(6-(3-(5-(5-cyclopropylpyridin-3-yl)-1,3,4-oxadiazol-2-yl)oxetan-3-yl)pyridin-3-yl)piperidin-3-amine] | > 5000 | 500 to 5000 |
| ≤ 50 | c1ncc(-c2cn(C3(c4ccc(N5CCC[C@@H](NCC6CC6)C5)cn4)COC3)nn2)cc1CC1CC1 [Compound 346, (R)-N-(cyclopropylmethyl)-1-(6-(3-(4-(5-(cyclopropylmethyl)pyridin-3-yl)-1H-1,2,3-triazol-1-yl)oxetan-3-yl)pyridin-3-yl)piperdin-3-amine] | ≤ 500 | ≤ 500 |
| ≤ 50 | c1ncc(C2CC2)cc1-c1cn(C2(c3ccc(N4CCC[C@@H](NCC5CC5)C4)cn3)CNC2)nn1 [Compound 349, (R)-N-(cyclopropylmethyl)-1-(6-(3-(4-(5-cyclopropylpyridin-3-yl)-1H-1,2,3-triazol-1-yl)azetidin-3-yl)pyridin-3-yl)piperidin-3-amine] | 500 to 5000 | > 5000 |
| ≤ 50 | CC(c1ccc(N2CCC[C@@H](NCC3CC3)C2)nn1)c1nnc(-c2cncc(C3CC3)c2)s1 (stereo partly drawn) [Compound 358, (3R)—N-(cyclopropylmethyl)-1-(6-(1-(5-(5-cyclopropylpyridin-3-yl)-1,3,4-thiadiazol-2-yl)ethyl)pyridazin-3-yl)piperidin-3-amine] | ≤ 500 | 500 to 5000 |
| ≤ 50 | CC(C)(c1ccc(N2CCC[C@@H](NCC3CC3)C2)cn1)c1nnc(-c2cncc(C3CC3)c2)s1 [Compound 363, (R)-N-(cyclopropylmethyl)-1-(6-(2-(5-(5-cyclopropylpyridin-3-yl)-1,3,4-thiadiazol-2-yl)propan-2-yl)pyridin-3-yl)piperidin-3-amine] | 500 to 5000 | 500 to 5000 |
| ≤ 50 | CC1(CN[C@@H]2CCCN(c3ccc(C4(c5nnc(-c6cncc(N7CCCC7)n6)s5)COC4)nc3)C2)CC1 [Compound 367, (R)-N-((1-methylcyclopropyl)methyl)-1-(6-(3-(5-(6-(pyrrolidin-1-yl)pyrazin-2-yl)-1,3,4-thiadiazol-2-yl)oxetan-3-yl)pyridin-3-yl)piperdin-3-amine] | ≤ 500 | ≤ 500 |
| ≤ 50 | CC1(CN[C@@H]2CCCN(c3ccc(C4(c5nnc(-c6cncc(C7CC7)c6)s5)COC4)nc3)C2)CC1 [Compound 368, (R)-1-(6-(3-(5-(5-cyclopropylpyridin-3-yl)-1,3,4-thiadiazol-2-yl)oxetan-3-yl)pyridin-3-yl)-N-((1-methylcyclopropyl)methyl)piperidin-3-amine] | ≤ 500 | ≤ 500 |
